Literature values, collected in publication PMC12308805, “Ultrahigh-Throughput Virtual Screening Strategies against PPI Targets: A Case Study of STAT Inhibitors” (Journal of Chemical Information and Modeling, 2025).
Numbered stars: 1 amine (or outer) side, 2 acyl side, 3 side chain; on linkers, the order of the positions; unused ones are H or OH. Square brackets hold non-standard residues; d marks the D form. Peptide text beside a SMILES is read from it. * marks the point of attachment. Phe(4-tetrazol-5-yl) = N[C@@H](Cc1ccc(-c2nnn[nH]2)cc1)C(=O)O; X2 = O=C([C@H](Cc1ccc(Cc2nn[nH]n2)cc1)N[*:1])[*:2]; X5 = O=C([C@@H]1[C@@H]2C[C@@H]2CN1[*:1])[*:2]; d(pY) = N[C@H](Cc1ccc(OP(=O)(O)O)cc1)C(=O)O; pY = N[C@@H](Cc1ccc(OP(=O)(O)O)cc1)C(=O)O; NH(1R-phenylethyl) = C[C@@H](N*)c1ccccc1; NH(1S-phenylethyl) = C[C@H](N*)c1ccccc1; X4 = O=C(/C=C/c1ccc(OP(=O)(O)O)cc1)*; d(aThr) = C[C@@H](O)[C@@H](N)C(=O)O; Hydrocinnamoyl = O=C(CCc1ccccc1)*; Hyp = O=C(O)[C@@H]1C[C@@H](O)CN1; Cha = N[C@@H](CC1CCCCC1)C(=O)O; Nle = CCCC[C@H](N)C(=O)O; Cbz = O=C(OCc1ccccc1)*; NHBn = c1ccc(CN*)cc1; Propionyl = CCC(=O)*; Bz = O=C(c1ccccc1)*

Tested on: STAT3
Settings: cited from earlier work

| Compound | Type (known STAT3 active) |
| --- | --- |
| CC(=O)N[C@H](Cc1ccc(OP(=O)(O)O)cc1)C(=O)N[C@H](CC(C)C)C(=O)N1CCC[C@H]1C(=O)N[C@@H](CCC(N)=O)C(=O)N[C@@H](C)C(=O)N[C@H](C(N)=O)C(C)C [CHEMBL156407] (Ac-[d(pY)][dL]PQAV-NH2) | Active |
| CC(=O)N[C@@H](Cc1ccc(OP(=O)(O)O)cc1)C(=O)N[C@@H](CC(C)C)C(=O)N1CCC[C@H]1C(=O)N[C@H](CCC(N)=O)C(=O)N[C@@H](C(N)=O)[C@H](C)O [CHEMBL160353] (Ac-[pY]LP[dQ][dT]-NH2) | Active |
| CCC(=O)N[C@@H](Cc1ccc(OP(=O)(O)O)cc1)C(=O)N[C@@H](CC(C)C)C(=O)N1CCC[C@H]1C(=O)N[C@@H](CCC(N)=O)C(=O)N[C@H](C(N)=O)[C@@H](C)O [CHEMBL197580] (Propionyl-[pY]LPQT-NH2) | Active |
| CC(C)C[C@H](NC(=O)/C=C/c1ccc(OP(=O)(O)O)cc1)C(=O)N1CCC[C@H]1C(=O)N[C@H](C(=O)NCc1ccccc1)[C@@H](C)OC(N)=O [CHEMBL376795] | Active |
| CC(=O)N[C@@H](Cc1ccc(OP(=O)(O)O)cc1)C(=O)N[C@@H](CC(C)C)C(=O)N1CCC[C@H]1C(=O)N[C@@H](CCC(N)=O)C(=O)N[C@H](C(N)=O)[C@@H](C)O [CHEMBL382978] (Ac-[pY]LPQT-NH2) | Active |
| CC(C)C[C@H](NC(=O)[C@H](Cc1ccc(OP(=O)(O)O)cc1)NC(=O)OCc1ccccc1)C(=O)N1CCC[C@H]1C(=O)N[C@@H](CCC(N)=O)C(=O)N[C@H](C(N)=O)[C@@H](C)O [CHEMBL435121] (Cbz-[pY]LPQT-NH2) | Active |
| CC(=O)N[C@@H](Cc1ccc(OP(=O)(O)O)cc1)C(=O)N[C@@H](CC(C)C)C(=O)N1C[C@H]2C[C@H]2[C@H]1C(=O)N[C@@H](CCC(N)=O)C(=O)N[C@H](C(N)=O)[C@@H](C)O [CHEMBL436319] (Ac-[pY]L[X5]QT-NH2) | Active |

Same assay, conditions: sheet 6QHD_actives_decoys; known STAT3 actives of the retrospective screening set; ref ChEMBL / literature; cited from earlier work

| Compound | Type (known STAT3 active) |
| --- | --- |
| CC(=O)N[C@@H](Cc1ccc(OP(=O)(O)O)cc1)C(=O)N[C@@H](CC(C)C)C(=O)N1CCC[C@@H]1C(=O)N[C@H](CCC(N)=O)C(=O)N[C@@H](C(=O)N[C@H](C)C(=O)O)[C@@H](C)O [CHEMBL157727] (Ac-[pY]L[dP][dQ][d(aThr)][dA]-OH) | Active |
| CC(=O)N[C@@H](Cc1ccc(OP(=O)(O)O)cc1)C(=O)N[C@@H](CC(C)C)C(=O)N1CCC[C@H]1C(=O)N[C@H](CCC(N)=O)C(N)=O [CHEMBL160658] (Ac-[pY]LP[dQ]-NH2) | Active |
| CSCC[C@H](NC(=O)[C@H](CCC(N)=O)NC(=O)[C@H]1CCCN1C(=O)[C@H](CCCCN)NC(=O)[C@H](Cc1ccc(OP(=O)(O)O)cc1)NC(C)=O)C(=O)N[C@@H](Cc1c[nH]cn1)C(N)=O [CHEMBL160733] (Ac-[pY]K[dP]QMH-NH2) | Active |
| CC(=O)N[C@@H](Cc1ccc(OP(=O)(O)O)cc1)C(=O)N[C@@H](CC(C)C)C(=O)N1CCC[C@H]1C(=O)N[C@@H](CCC(N)=O)C(=O)N[C@H](C)c1ccccc1 [CHEMBL193433] (Ac-[pY]LPQ-{NH(1R-phenylethyl)}) | Active |
| CC(=O)N[C@@H](Cc1ccc(OP(=O)(O)O)cc1)C(=O)N[C@@H](CC(C)C)C(=O)N1CCC[C@H]1C(=O)N[C@@H](CCC(N)=O)C(N)=O [CHEMBL194516] (Ac-[pY]LPQ-NH2) | Active |
| CC(=O)N[C@@H](Cc1ccc(OP(=O)(O)O)cc1)C(=O)N[C@@H](CC(C)C)C(=O)N1CCC[C@H]1C(=O)N[C@@H](CCC(N)=O)C(=O)NCc1ccccc1 [CHEMBL194855] (Ac-[pY]LPQ-NHBn) | Active |
| CCCC[C@H](NC(=O)[C@H](Cc1ccc(OP(=O)(O)O)cc1)NC(C)=O)C(=O)N1CCC[C@H]1C(=O)N[C@@H](CCC(N)=O)C(=O)N[C@H](C(N)=O)[C@@H](C)O [CHEMBL197513] (Ac-[pY][Nle]PQT-NH2) | Active |
| CC(C)C[C@H](NC(=O)[C@H](Cc1ccc(OP(=O)(O)O)cc1)NC(=O)CCc1ccccc1)C(=O)N1CCC[C@H]1C(=O)N[C@@H](CCC(N)=O)C(=O)N[C@H](C(N)=O)[C@@H](C)O [CHEMBL197844] (Hydrocinnamoyl-[pY]LPQT-NH2) | Active |
| C1=Cc2nc1cc1ccc([nH]1)c(-c1ccccc1)c1nc(cc3ccc([nH]3)c2-c2ccccc2)C=C1 [CHEMBL207155] | Active |
| CC(=O)N[C@@H](Cc1ccc(OC(C(=O)O)C(=O)O)cc1)C(=O)N[C@@H](CC(C)C)C(=O)N1CCC[C@H]1C(=O)N[C@@H](CCC(N)=O)C(=O)N[C@H](C(=O)N[C@H](C(=O)O)C(C)C)[C@@H](C)O [CHEMBL231705] | Active |
| CC(=O)N[C@@H](Cc1ccc(Cc2nn[nH]n2)cc1)C(=O)N[C@@H](CC(C)C)C(=O)N1CCC[C@H]1C(=O)N[C@@H](CCC(N)=O)C(=O)N[C@H](C(=O)N[C@H](C(=O)O)C(C)C)[C@@H](C)O [CHEMBL233355] (Ac-[X2]LPQTV-OH) | Active |
| CC(C)C[C@H](NC(=O)/C=C/c1ccc(OP(=O)(O)O)cc1)C(=O)N1CCC[C@H]1C(=O)N[C@@H](CCC(N)=O)C(=O)NCc1ccccc1 [CHEMBL267246] | Active |
| CSCC[C@H](NC(=O)[C@H](C)NC(=O)[C@H](CCC(N)=O)NC(=O)[C@@H]1CCCN1C(=O)[C@@H](CCCN=C(N)N)NC(=O)[C@@H](Cc1ccc(OP(=O)(O)O)cc1)NC(C)=O)C(N)=O [CHEMBL345419] (Ac-[d(pY)][dR]PQAM-NH2) | Active |
| CNC(=O)[C@H](CCC(N)=O)NC(=O)[C@@H]1CCCN1C(=O)[C@H](CC(C)C)NC(=O)[C@H](Cc1ccc(OP(=O)(O)O)cc1)NC(C)=O [CHEMBL370095] (Ac-[pY]LPQ-NHMe) | Active |
| CC(=O)N[C@@H](Cc1ccc(OP(=O)(O)O)cc1)C(=O)N[C@@H](CC(C)C)C(=O)N1CCC[C@H]1C(=O)N[C@@H](CCC(N)=O)C(=O)N[C@@H](C)c1ccccc1 [CHEMBL370208] (Ac-[pY]LPQ-{NH(1S-phenylethyl)}) | Active |
| CC(C)C[C@H](NC(=O)[C@H](Cc1ccc(OP(=O)(O)O)cc1)NC(=O)CCc1ccccc1)C(=O)N1C[C@H]2C[C@H]2[C@H]1C(=O)N[C@@H](CCC(N)=O)C(=O)NCc1ccccc1 [CHEMBL370763] | Active |

| Compound | Type (known STAT3 active) |
| --- | --- |
| CC(=O)N[C@@H](Cc1ccc(OP(=O)(O)O)cc1)C(=O)N[C@@H](CC1CCCCC1)C(=O)N1CCC[C@H]1C(=O)N[C@@H](CCC(N)=O)C(=O)N[C@H](C(N)=O)[C@@H](C)O [CHEMBL371871] (Ac-[pY][Cha]PQT-NH2) | Active |
| CC(=O)N[C@@H](Cc1ccc(OP(=O)(O)O)cc1)C(=O)N[C@@H](CC(C)C)C(=O)N1C[C@H](O)C[C@H]1C(=O)N[C@@H](CCC(N)=O)C(=O)N[C@H](C(N)=O)[C@@H](C)O [CHEMBL372429] (Ac-[pY]L[Hyp]QT-NH2) | Active |
| CC(=O)N[C@@H](Cc1ccc(OP(=O)(O)O)cc1)C(=O)N[C@@H](CC(C)C)C(=O)N1CCC[C@H]1C(=O)N[C@@H](CCC(N)=O)C(=O)O [CHEMBL382544] (Ac-[pY]LPQ-OH) | Active |
| CC(C)C[C@H](NC(=O)/C=C/c1ccc(OP(=O)(O)O)cc1)C(=O)N1CCC[C@H]1C(=O)N[C@@H](COC(N)=O)C(=O)NCc1ccccc1 [CHEMBL414034] | Active |
| CC(=O)N[C@@H](Cc1ccc(OCC(=O)O)cc1)C(=O)N[C@@H](CC(C)C)C(=O)N1CCC[C@H]1C(=O)N[C@@H](CCC(N)=O)C(=O)N[C@H](C(=O)N[C@H](C(=O)O)C(C)C)[C@@H](C)O [CHEMBL414897] | Active |
| CC(C)C[C@H](NC(=O)[C@H](Cc1ccc(OP(=O)(O)O)cc1)NC(=O)c1ccccc1)C(=O)N1CCC[C@H]1C(=O)N[C@@H](CCC(N)=O)C(=O)N[C@H](C(N)=O)[C@@H](C)O [CHEMBL425571] (Bz-[pY]LPQT-NH2) | Active |
| CC(=O)N[C@@H](Cc1ccc(-c2nn[nH]n2)cc1)C(=O)N[C@@H](CC(C)C)C(=O)N1CCC[C@H]1C(=O)N[C@@H](CCC(N)=O)C(=O)N[C@H](C(=O)N[C@H](C(=O)O)C(C)C)[C@@H](C)O [CHEMBL439390] (Ac-[Phe(4-tetrazol-5-yl)]LPQTV-OH) | Active |
| NC(=O)CC[C@H](NC(=O)[C@@H]1CC[C@@H]2CC[C@H](NC(=O)/C=C/c3ccc(OP(=O)(O)O)cc3)C(=O)N21)C(=O)NCc1ccccc1 [CHEMBL445970] | Active |
| CC(C)NC(=O)[C@H](CCC(N)=O)NC(=O)[C@@H]1Cc2cccc3c2N1C(=O)[C@@H](NC(=O)/C=C/c1ccc(OP(=O)(O)O)cc1)CC3 [CHEMBL447460] | Active |
| NC(=O)CC[C@H](NC(=O)[C@@H]1Cc2cccc3c2N1C(=O)[C@@H](NC(=O)/C=C/c1ccc(OP(=O)(O)O)cc1)CC3)C(N)=O [CHEMBL449511] | Active |
| NC(=O)CC[C@H](NC(=O)[C@@H]1Cc2cccc3c2N1C(=O)[C@@H](NC(=O)/C=C/c1ccc(OP(=O)(O)O)cc1)CC3)C(=O)NCc1ccccc1 [CHEMBL449547] | Active |
| NC(=O)CC[C@H](NC(=O)[C@@H]1Cc2cccc3c2N1C(=O)[C@@H](NC(=O)c1cc2cc(OP(=O)(O)O)ccc2[nH]1)CC3)C(=O)NCc1ccccc1 [CHEMBL452194] | Active |
| CNC(=O)[C@H](CCC(N)=O)NC(=O)[C@@H]1Cc2cccc3c2N1C(=O)[C@@H](NC(=O)/C=C/c1ccc(OP(=O)(O)O)cc1)CC3 [CHEMBL454365] | Active |
| CC(C)C[C@H](NC(=O)/C=C/c1ccc(OP(=O)(O)O)cc1)C(=O)N1CCC[C@H]1C(=O)N[C@@H](CCC(N)=O)C(=O)N[C@H](C(N)=O)[C@@H](C)O [CHEMBL470227] (X4-LPQT-NH2) | Active |
| O=C(O)CCCNC(=O)[C@@H]1Cc2cccc3c2N1C(=O)[C@@H](NC(=O)/C=C/c1ccc(OP(=O)(O)O)cc1)CC3 [CHEMBL475488] | Active |
